Data as given in patent publication US20240209028A1, “CNP COMPOUNDS” (priority 2022, published 2024).
≈ marks a conversion by molar mass, not a printed value. Starred links: 1 amine or outer side, 2 acyl side, 3 side chain; linkers in the order of their positions; H or OH if unused. Positions of bridges follow the written chain, without caps; N, C: chain ends. Residues, ends and D or L forms follow the SMILES beside them. *: point of attachment. C18 diacid = O=C(O)CCCCCCCCCCCCCCCCC(=O)*; γGlu = O=C(O)[C@H](CCC(=O)[*:2])N[*:1]; AEEA = NCCOCCOCC(=O)O

How the values were obtained:
[1] = CNP local tolerance study in LYD pigs (s.c. injection, histopathology); type: in vivo, domestic LYD pig
Text: The purpose of this study was to evaluate the local tissue reaction response to subcutaneous injection of CNP compounds in pigs.
Procedure: In domestic pigs, the injection site was subjected to histopathologic examination after subcutaneous dosing. Injections were placed mid-back between the shoulder and hip on both sides of the dorsal midline, and one or two days before injection sites of 2×2 cm were shaved and marked by permanent ink under light anaesthesia. Each injection consisted of 100 or 200 μl formulation with a concentration of approx. 4400 μM. CNP compound formulations were prepared according to the principles in General Methods of Preparation—Method G, and were either A) 8 mM sodium phosphate, 250 mM glycerol, pH 6.5, B) 5 mM sodium acetate, 250 mM glycerol, pH 4.0 or C) 5 mM sodium acetate, 240 mM propylene glycol, pH 4.0 and physiological saline was included as negative control.
On Day 1 the pigs were lightly anaesthetised. An insulin pen (NovoPen 4) and insulin needle (NovoTwist 32G/5 mm) were used for accurate deposition of the CNP formulations in the subcutaneous fat tissue with the needle perpendicular to the skin. On Day 5 (4 days post injection) or 6 (5 days post injection), the pigs were euthanised, and the injection sites were removed and fixed in 4% phosphate buffered neutral formaldehyde in sealed plastic containers. The tissue blocks were prefixed for 2-4 hours in 10% buffered formalin, cut into 2 mm thick slabs with a multi knife, examined for macroscopic changes and finally fixed overnight in cassettes. Two slabs of tissue were selected for light microscopic evaluation where the tissue reaction was maximal or alternatively in the central part of the injection site. Three to four 2-4 μm sections were cut from three levels at 100 μm distance, stained with haematoxylin and eosin (H&E) and evaluated in a light microscope. Histopathological changes were graded on a 5-level scale ((Minimal (Min), Mild (Mil), Moderate (Mod), Marked (Mar) and Severe (Sev)). The studies are summarised in Table 18.
Results: The results are summarised in Table 19. * Necrosis was used as a marker for local subcutaneous reactions; **NAD: No Abnormalities Detected

[2] = molecular target: T1, human natriuretic peptide receptor 2 (hNPR2) (Homo sapiens, UniProt P20594); assay: In vitro hNPR2 activity assay (cGMP GloSensor reporter, HEK293); type: cell-based; conditions: for hNPR2 0% HSA. [EC50% rel CNP]: potency relative to CNP22 (0065)
T1 construct: expressed in transfected cells; host or cells: HEK293 (ATCC CRL-1573), clone 35, co-transfected with pGloSensor-42F
T1 sequence (P20594 23-1047): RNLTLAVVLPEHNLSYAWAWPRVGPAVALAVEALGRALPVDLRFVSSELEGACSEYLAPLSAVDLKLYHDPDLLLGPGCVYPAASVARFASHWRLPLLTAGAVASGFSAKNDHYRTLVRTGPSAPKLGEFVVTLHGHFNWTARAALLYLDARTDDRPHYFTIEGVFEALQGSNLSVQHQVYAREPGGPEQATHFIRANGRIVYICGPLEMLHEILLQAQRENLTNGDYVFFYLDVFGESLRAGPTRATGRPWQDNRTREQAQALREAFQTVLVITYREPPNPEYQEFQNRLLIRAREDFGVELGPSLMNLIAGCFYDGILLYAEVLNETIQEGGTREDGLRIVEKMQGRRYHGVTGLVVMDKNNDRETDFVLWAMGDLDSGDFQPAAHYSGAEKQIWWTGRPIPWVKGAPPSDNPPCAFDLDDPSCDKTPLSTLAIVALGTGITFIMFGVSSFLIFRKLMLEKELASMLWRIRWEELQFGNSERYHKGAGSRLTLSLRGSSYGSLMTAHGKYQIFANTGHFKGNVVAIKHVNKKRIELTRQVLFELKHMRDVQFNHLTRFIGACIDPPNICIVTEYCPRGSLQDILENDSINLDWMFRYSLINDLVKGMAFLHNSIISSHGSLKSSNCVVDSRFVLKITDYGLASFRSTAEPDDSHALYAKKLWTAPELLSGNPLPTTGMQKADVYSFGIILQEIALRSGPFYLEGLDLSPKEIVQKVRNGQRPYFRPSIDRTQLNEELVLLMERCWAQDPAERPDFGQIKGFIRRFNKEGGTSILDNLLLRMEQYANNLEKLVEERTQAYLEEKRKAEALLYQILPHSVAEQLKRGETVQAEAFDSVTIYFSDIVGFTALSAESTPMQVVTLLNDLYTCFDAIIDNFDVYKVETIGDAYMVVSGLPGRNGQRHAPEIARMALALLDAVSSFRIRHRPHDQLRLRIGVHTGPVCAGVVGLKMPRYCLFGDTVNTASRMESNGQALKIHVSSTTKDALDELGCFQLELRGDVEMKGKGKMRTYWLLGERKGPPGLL
Procedure, shortened: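 Potency is the EC50 from a four-parameter logistic fit, also expressed relative to the in-plate CNP22 control (×100), with at least two replicates. Compounds (ten concentrations, […], HSA-free diluent with 1% OVA, 0.01% Tween20) were incubated 30 min at 37 °C on HEK293 cells co-expressing hNPR2 and a GloSensor cGMP luciferase. Luminescence detected with Bright-Glo.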

[3] = Solubility of CNP compounds at pH 4.0 and pH 6.5; type: physicochemical; conditions: 8 mM sodium phosphate, 23 mg/mL glycerol, pH 6.5, room temperature; read-out: Solubility at pH 6.5
Procedure: In order to assess the suitability of CNP compounds for a soluble liquid formulation, the solubility of CNP compounds in pharmaceutically relevant buffers were measured. Solubility at two different pH-levels (pH 4.0 and pH 6.5) was examined as pH is expected to affect solubility.
Preparation of pH 4.0 samples: The pH 4.0 samples of the CNP compounds were prepared by mixing freeze dried peptide with a pH 4.0 5 mM sodium acetate, 250 mM glycerol buffer at room temperature to a nominal concentration of at least 4000-5000 nmol/mL. The pH of the samples was measured and adjusted to pH 4.0 and the samples were allowed to equilibrate at room temperature until next day if not fully dissolved.
Preparation of pH 6.5 samples: The pH 6.5 samples of the CNP compounds were prepared by dissolving the freeze dried peptide in water. While stirring, a part of the peptide solution was transferred to a buffer consisting of 41 mM sodium phosphate and 118 mg/mL glycerol, pH 7.5-8.0, followed by addition of diluted sodium hydroxide followed by another part of the peptide solution and further addition of diluted sodium hydroxide. This procedure was repeated until all of the peptide solution had been added where a nominal concentration of at least 4000-5000 nmol/mL had been reached and the buffer composition was 8 mM sodium phosphate, 23 mg/mL glycerol. The pH of the samples were measured and adjusted to pH 6.5 and the samples were allowed to equilibrate at room temperature until next day if not fully dissolved.
Procedure: Samples at pH 4.0 were prepared as described above and the compound concentration in the supernatant was determined using CAD (Method F, CAD02).
Samples at pH 6.5 were prepared as described above and peptide concentration in the supernatant was determined by CAD (Method F, CAD02).

SMILES | Number of injections by severity of necrosis: NAD ([1]; LYD pig, s.c., approx. 4400 μM, 4 or 5 days after injection) | EC50 ([2]; 0% HSA, HEK293-hNPR2/GloSensor cells) | hNPR2 0% HSA. [EC50% rel CNP] [2] | injection site reactions ([1]; subcutaneous injections in the pig) | solubility [3]
CC[C@H](C)[C@@H]1NC(=O)[C@H](CCCNC(=N)N)NC(=O)[C@H](CC(=O)O)NC(=O)[C@H](CC(C)C)NC(=O)[C@H](CCCCN)NC(=O)[C@H](CC(C)C)NC(=O)CNC(=O)[C@H](Cc2ccccc2)NC(=O)[C@@H](NC(=O)CNC(=O)[C@H](CCCCN)NC(=O)[C@H](CO)NC(=O)[C@H](CC(C)C)NC(=O)CNC(=O)[C@H](CCCCN)NC(=O)[C@H](CCCCN)NC(=O)[C@H](CC(N)=O)NC(=O)[C@H](C)NC(=O)CNC(=O)[C@H](CCCCN)NC(=O)[C@H](Cc2ccc(O)cc2)NC(=O)[C@H](CCCCN)NC(=O)[C@H](CCCNC(=N)N)NC(=O)[C@H](C)NC(=O)[C@H](CC(N)=O)NC(=O)[C@@H]2CCCN2C(=O)[C@H](Cc2c[nH]cn2)NC(=O)[C@H](CCC(=O)O)NC(=O)[C@H](CCC(N)=O)NC(=O)CNC(=O)[C@@H]2CCCN2)CSSC[C@@H](C(=O)O)NC(=O)CNC(=O)[C@H](CC(C)C)NC(=O)CNC(=O)[C@H](CO)NC(=O)[C@H](CCSC)NC(=O)[C@H](CO)NC(=O)CNC1=O [Compound 0106] | 4 | – | – | – | –
CC[C@H](C)[C@@H]1NC(=O)[C@H](CCCNC(=N)N)NC(=O)[C@H](CC(=O)O)NC(=O)[C@H](CC(C)C)NC(=O)[C@H](CCCCN)NC(=O)[C@H](CC(C)C)NC(=O)CNC(=O)[C@H](Cc2ccccc2)NC(=O)[C@@H](NC(=O)CNC(=O)[C@H](CCCCN)NC(=O)[C@H](CO)NC(=O)[C@H](CC(C)C)NC(=O)CNC(=O)[C@H](CCCCN)NC(=O)[C@H](CCCCN)NC(=O)[C@H](CC(N)=O)NC(=O)[C@H](C)NC(=O)CNC(=O)[C@H](CCCCN)NC(=O)[C@H](Cc2ccc(O)cc2)NC(=O)[C@H](CCCCN)NC(=O)[C@H](CCCNC(=N)N)NC(=O)[C@H](C)NC(=O)[C@H](CC(N)=O)NC(=O)[C@@H]2CCCN2C(=O)[C@H](Cc2c[nH]cn2)NC(=O)[C@H](CCC(=O)O)NC(=O)[C@H](CCC(N)=O)NC(=O)CNC(=O)[C@@H]2CCCN2)CSSC[C@@H](C(=O)O)NC(=O)CNC(=O)[C@H](CC(C)C)NC(=O)CNC(=O)[C@H](CO)NC(=O)[C@H](CCSC)NC(=O)[C@H](CO)NC(=O)CNC1=O [compound 0106] | – | 0.18 nM | 201.1% | no observable injection site reactions | –
CC[C@H](C)[C@@H]1NC(=O)[C@H](CCCNC(=N)N)NC(=O)[C@H](CC(=O)O)NC(=O)[C@H](CC(C)C)NC(=O)[C@@H]2CCCN2C(=O)[C@H](CC(C)C)NC(=O)CNC(=O)[C@H](Cc2ccccc2)NC(=O)[C@@H](NC(=O)CNC(=O)[C@H](CO)NC(=O)[C@H](CO)NC(=O)[C@@H](NC(=O)CNC(=O)[C@@H](NC(=O)[C@H](Cc2c[nH]cn2)NC(=O)[C@H](CCC(N)=O)NC(=O)[C@H](C)NC(=O)CNC(=O)[C@H](Cc2c[nH]cn2)NC(=O)[C@H](Cc2ccc(O)cc2)NC(=O)[C@H](CCCCN)NC(=O)[C@H](CCCNC(=N)N)NC(=O)[C@H](C)NC(=O)COCCOCCNC(=O)COCCOCCNC(=O)CC[C@H](NC(=O)CC[C@H](NC(=O)CCCCCCCCCCCCCCCCC(=O)O)C(=O)O)C(=O)O)[C@@H](C)O)C(C)C)CSSC[C@@H](C(=O)O)NC(=O)CNC(=O)[C@H](CC(C)C)NC(=O)CNC(=O)[C@H](CO)NC(=O)[C@H](CC(C)C)NC(=O)[C@H](CO)NC(=O)CNC1=O [compound 1419] ({C18 diacid-γGlu-γGlu-AEEA-AEEA}-ARKYHGAQHTGVSSGCFGLPLDRIGSLSGLGC-OH; disulfide 16-32) | – | – | 37.2% | – | 318 µM (≈ 1300 µg/mL)
CC[C@H](C)[C@@H]1NC(=O)[C@H](CCCNC(=N)N)NC(=O)[C@H](CC(=O)O)NC(=O)[C@H](CC(C)C)NC(=O)[C@@H]2CCCN2C(=O)[C@H](CC(C)C)NC(=O)CNC(=O)[C@H](Cc2ccccc2)NC(=O)[C@@H](NC(=O)CNC(=O)[C@H](CO)NC(=O)[C@H](CO)NC(=O)[C@@H](NC(=O)CNC(=O)[C@@H](NC(=O)[C@H](CCCCN)NC(=O)[C@H](CCC(N)=O)NC(=O)[C@H](C)NC(=O)CNC(=O)[C@H](CCCCN)NC(=O)[C@H](Cc2ccc(O)cc2)NC(=O)[C@H](CCCCN)NC(=O)[C@H](CCCNC(=N)N)NC(=O)[C@H](C)NC(=O)COCCOCCNC(=O)COCCOCCNC(=O)CC[C@H](NC(=O)CC[C@H](NC(=O)CC[C@H](NC(=O)CCCCCCCCCCCCCCCCC(=O)O)C(=O)O)C(=O)O)C(=O)O)[C@@H](C)O)C(C)C)CSSC[C@@H](C(=O)O)NC(=O)CNC(=O)[C@H](CC(C)C)NC(=O)CNC(=O)[C@H](CO)NC(=O)[C@H](CC(C)C)NC(=O)[C@H](CO)NC(=O)CNC1=O [compound 1421] ({C18 diacid-γGlu-γGlu-γGlu-AEEA-AEEA}-ARKYKGAQKTGVSSGCFGLPLDRIGSLSGLGC-OH; disulfide 16-32) | – | – | 50.0% | – | 857 µM (≈ 3600 µg/mL)
